Assay results as given in US20240197588A1, “ANTIMICROBIAL COMPOSITION” (Conopco, Inc., d/b/a UNILEVER, priority 2021, published 2024).

What was measured:
[1] = Solubility of oil (detackifying agent) in 75/25 EtOH/Water; conditions: neat detackifying agent
From the text: (§1) Detackifying agents desirable for use in the antimicrobial composition disclosed herein must meet the following criteria: the detackifying agent must be liquid, the detackifying agent must be soluble in at least a 75/25 or higher ratio of ethanol to water (EtOH/Water), which is to be reflective of solubility in the final composition resulting in a clear (i.e., transparent) final antimicrobial composition, and the detackifying agent must have no solvency for water.

[2] = Water solubility in oil (solvency of detackifying agent for water); conditions: neat detackifying agent
From the text: as §1
Finally, the preferred detackifying agent must itself not have solvency for water such that during application and on drying as the ethanol and water evaporate, the water is also allowed to quickly evaporate leaving behind only the oil and any skin benefit actives/moisturizers if present.

[3] = Physical state of detackifying agent at room temperature; assay type: physicochemical
From the text: RT in Table 4 refers to room temperature.

Compound | Solubility in 75/25 EtOH/Water [1] | Water solubility in detackifying agent [2] | Oil (liquid or solid at RT) [3]
CCCCCCCCCCCCOC(=O)C(C)O (stereo not shown) [Lauryl lactate] | >30% | No | Liquid
PPG15 Stearyl ether | >30% | No | Liquid
CC(C)OC(=O)CCCCC(=O)OC(C)C [Disopropyl adipate] | >30% | No | Liquid
Dicapryl maleate | <10% | No | Liquid
CC(C)CCCCCCCCCCCCCCCO [Isostearyl alcohol] | – | – | Liquid
CC(C)OC(=O)CCCCCCCCC(=O)OC(C)C [Diisopropyl sebacate] | – | – | Liquid
CCCCC(CC)COC(=O)CCCCC(=O)OCC(CC)CCCC (stereo not shown) [Diethylhexyl adipate] | <10% | No | Liquid
CCCCC(CC)COC(=O)CC(O)C(=O)OCC(CC)CCCC (stereo not shown) [Diethyl hexyl malate] | – | – | Liquid
CCCCC(CC)COC(=O)CCCCCCCCC(=O)OCC(CC)CCCC (stereo not shown) [Diethyl hexyl sebacate] | – | – | Liquid
